According to paper PMC5608556, “Photo-affinity labelling and biochemical analyses identify the target of trypanocidal simplified natural product analogues” (PLoS Neglected Tropical Diseases, 2017):

What was measured:
[1] = system: mitochondrial membrane potential (Δψm) in live PF T. brucei; assay: MitoTracker monitoring of mitochondrial membrane potential; format: cell-based, Trypanosoma brucei; details: 2 h; for Effect on mitochondrial membrane potential (Δψm): AA and OA 2 μM, DNP 1 mM; for Elevation of mitochondrial membrane potential (Δψm): compounds at 40 μM, MitoTracker Red/Green ratio relative to uninhibited control
Text: To determine which mitochondrial complex of oxidative phosphorylation was targeted by B-THP-T compounds, their effects on the mitochondrial membrane potential (Δψm) were monitored in live PF T. brucei (Fig 6A). MitoTracker Red CMXRos, like tetramethylrhodamine and safranine, accumulates in active mitochondria and the degree of accumulation is dependent on the Δψm, however, accumulation of MitoTracker Green FM is independent of the Δψm and the ratio of red/green uptake can therefore be used to determine the Δψm normalised to the number and size of mitochondria present. […] Similarly, compounds 1 and 3 elevated the mitochondrial membrane potential (by 2-3-fold), confirming that they, like OA, reduce oxidative phosphorylation by the inhibition of the FoF1-ATP synthase.
Fig 6 Effects of compounds on mitochondrial membrane potential. PF T. brucei were incubated with inhibitors and MitoTracker Red CMXRos, which is an indicator of the mitochondrial membrane potential (Δψm). (A) MitoTracker-loaded cells were imaged to qualitatively detect differences in the Δψm. […] (B) Fluorescence of MitoTracker-loaded cells were quantified using a microplate reader and normalised to MitoTracker green fluorescence.
2 x 10^6 PF T. brucei cells were incubated in 1 mL GF-SDM-79 growth media supplemented with/without inhibitors for 2 h. B-THP-Ts were used at 40 μM, AA and OA at 2 μM, DNP at 1 mM and SHAM at 100 μM. MitoTracker Red CMXRos and MitoTracker Green FM were added to 100 nM and 1 μM respectively and incubated for a further 10 min. Cells were washed in growth medium and the MitoTracker reagents chased into the mitochondrion for 10 min in fresh growth medium supplemented with inhibitors. Cells were washed again in growth medium to remove unincorporated MitoTracker reagents, pelleted, suspended in 100 μL 4% PFA in PBS, and fixed at RT in the dark for 10 min. Fixed cells were pelleted and suspended in 100 μl PBS. Cells were transferred to poly-lysine-coated slides and mounted with DAPI-containing SlowFade mounting medium (Invitrogen). Fluorescence images were collected with a DeltaVision microscope (as detailed above) to show MitoTracker localisation and comparative intensity.
1 mL of cells at 1 x 10^7 cells/mL were labelled as above. However, instead of fixing cells they were resuspended in 200 μL growth medium and transferred to 96-well plates. Fluorescences were recorded (excitation at 540/35 nm, emission at 590/10 nm for MitoTracker Red CMXRos, and excitation at 485/20 nm, emission at 528/20 nm for MitoTracker Green FM) using a BioTek FLX800 spectrofluorimeter and Gen5 Reader Control 2.0 software, in much the same way as others have recorded previously. Background fluorescence values were subtracted from each and MitoTracker Red fluorescences normalised against their MitoTracker Green FM counterparts. Membrane potentials were then calculated relative to the uninhibited controls.

T. brucei BSF = assay: Toxicity (EC50) in bloodstream form T. brucei; format: cell-based, Trypanosoma brucei
Text: (§1) Fig 1 Labelling and detection of B-THP-T target(s). (A) Structures of chamuvarinin and simplified analogues thereof as probes used in this study and their respective toxicity in selected cell lines. Bi-functional compound 3 contains a diazirine (blue) to cross-link the compound to its target and an alkyne handle (red) to which an azide-containing reporter probe can be added. Mono-functional compound 2 contains the diazirine to cross-link to its target but lacks the alkyne handle and cannot be appended with an azide reporter probe. Lead B-THP-T, compound 1, lacks both diazirine and alkyne. The additional functional groups on compounds 2 and 3 are minor alterations, which have little effect on inhibitor potency. (B) Overview of the in vivo pulse-chase photo-affinity labelling procedure. B-THP-T were incubated with live PF T. brucei cells and trafficked to their targets. Following UV-irradiation, only compounds containing a diazirine (i.e. compounds 2 and 3) could cross-link with target proteins. The subsequent “click reaction” appended the conjugated B-THP-T with a reporter probe as long as an alkyne handle was present (i.e. on compound 3). Refer to the experimental section for details. (C) Detection of Cy5.5-tagged proteins following photo-affinity labelling. Proteins were separated by SDS-PAGE and conjugated Cy5.5 was detected at 700 nm. Lanes 1–3 correspond to usage of compounds 1–3 respectively. Several proteins in lane 3 were conjugated with Cy5.5 via labelling with bi-functional compound 3. […]

T. brucei PF = assay: Toxicity (EC50, cell viability) in procyclic form T. brucei; format: cell-based; details: Trypanosoma brucei, live cells, 72 h incubation, footnote a
Text: as §1
The potency of lead B-THP-T, compound 1, was determined against oxidative phosphorylation in dose-response assays in digitonin-permeabilised PF T. brucei.
Supplementary file pntd.0005886.s001.tiff: S1 Fig Dose-response of B-THP-T compounds in PF T. brucei. EC50 values were determined for compounds 1–3 in PF T. brucei. […]

Vero = assay: Toxicity (EC50) in Vero cells; format: cell-based; details: Chlorocebus sabaeus, footnote b, read-out: EC50 values Mammal Vero
Text: Fig 1 Labelling and detection of B-THP-T target(s). (A) Structures of chamuvarinin and simplified analogues thereof as probes used in this study and their respective toxicity in selected cell lines. Bi-functional compound 3 contains a diazirine (blue) to cross-link the compound to its target and an alkyne handle (red) to which an azide-containing reporter probe can be added. Mono-functional compound 2 contains the diazirine to cross-link to its target but lacks the alkyne handle and cannot be appended with an azide reporter probe. Lead B-THP-T, compound 1, lacks both diazirine and alkyne. The additional functional groups on compounds 2 and 3 are minor alterations, which have little effect on inhibitor potency. (B) Overview of the in vivo pulse-chase photo-affinity labelling procedure. B-THP-T were incubated with live PF T. brucei cells and trafficked to their targets. Following UV-irradiation, only compounds containing a diazirine (i.e. compounds 2 and 3) could cross-link with target proteins. The subsequent “click reaction” appended the conjugated B-THP-T with a reporter probe as long as an alkyne handle was present (i.e. on compound 3). Refer to the experimental section for details. (C) Detection of Cy5.5-tagged proteins following photo-affinity labelling. Proteins were separated by SDS-PAGE and conjugated Cy5.5 was detected at 700 nm. […]

Compound	Effect on mitochondrial membrane potential (Δψm) [1]	EC50 (T. brucei BSF; Trypanosoma brucei, bloodstream form, footnote b) [µM]	EC50 (T. brucei PF) [µM]	Elevation of mitochondrial membrane potential (Δψm) [1]	EC50 (Vero) [µM]	Selectivity towards T. brucei over mammalian HeLa cells (T. brucei BSF; from EC50 values of Fig 1)
O=C(O)CC(=O)O [malonate]	decrease the Δψm	–	–	–	–	–
CCCCCC[C@H]1C(=O)O[C@H](C)[C@H](NC(=O)c2cccc(NC=O)c2O)C(=O)O[C@@H](C)[C@@H]1OC(=O)CC(C)C [antimycin A]	decrease the Δψm	–	–	–	–	–
C#CCNC(=O)CCC[C@H]1CC2(C[C@@H](Cn3cc([C@@H]4CCC[C@H](CCCCOCc5ccccc5)O4)nn3)O1)N=N2 [Compound 3]	–	13 ± 1	16.1 ± 0.6	2-3 fold	21.3 ± 2	–
CCCCCC[C@H]1CCC[C@@H](Cn2cc([C@@H]3CCC[C@H](CCCCO)O3)nn2)O1 [Compound 1]	–	–	8.4	2-3 fold	–	only modest selectivity
